Data from article PMC9785441, “A Broad Spectrum Antiparasitic Activity of Organotin (IV) Derivatives and Its Untargeted Proteomic Profiling Using Leishmania donovani” (Pathogens, 2022).
Where two headings read alike, the source gives them in different places.

Tests used:
[1] = tested on: G. lamblia (WB strain) trophozoites; assay: G. lamblia trophozoite viability assay (CellTiter-Glo); format: cell-based, Giardia lamblia; conditions: 48 h
Experimental: Trophozoites of G. lamblia (WB strain) were maintained in vitro as described in TYI-S-33 medium supplemented with penicillin (100 U/mL) and streptomycin (100 µg/mL). Cells were harvested during the logarithmic phase of the growth for antiparasitic assessment. Test compounds were serially diluted and transferred to a white solid bottomed 96-well tissue culture plate (E&K Scientific, Swedesboro, NJ, USA) followed by addition of 5000 G. lamblia trophozoites for a final volume of 100 µL of TYI-S-33 medium and a final concentration of compounds ranging from 50.0 to 0.39 µM. Metronidazole was used as a positive control and assay plates were incubated for 48 h at 37 °C in the GasPak EZ Anaerobic Gas Generating Pouch System (VWR). Parasite viability was measured in triplicate using the CellTiter-Glo luminescence kit in an Envision plate reader. EC50 values were obtained using the GraphPad Prism 9 Software.

[2] = tested on: T. cruzi (infecting C2C12); assay: T. cruzi intracellular amastigote assay in C2C12 cells (high content imaging); format: cell-based, Trypanosoma cruzi; conditions: for EC50: intracellular amastigotes, 72 h, read-out: EC50 T. cruzi (infecting C2C12)
Experimental: Mouse C2C12 myoblasts (ATCC CRL-1772) were cultivated in RPMI 1640 medium supplemented with 5% FBS and kept at 37 °C and 5% CO2. T. cruzi CAI-72 trypomastigotes were obtained from the supernatant of C2C12 cells infected four to seven days previously. For the assay, 500 C2C12 cells were mixed with 7500 T. cruzi parasites and seeded into 384-well plates at a 50 µL final volume. Test compounds and reference drugs (Benznidazole and K11777) were pre-spotted into the 384 well black bottom plates prior to the addition of cells and parasites with final assay concentration of 20 µM to 0.02 µM. The plates were incubated at 37 °C^, 5% CO2 for 72 h. Cultures were then fixed with 4% formaldehyde and 0.5 µg/mL DAPI (diamidino-2-phenylindole) was added for staining nucleic acids. Plates were kept protected from light for 1 h and then imaged in an ImageXpress Micro XLS automated high content imager (Molecular Devices, San Jose, CA, USA). Imaging and data analysis were performed as described for L. donovani amastigotes on biological triplicates.

S. mansoni, adult worm = assay: S. mansoni adult worm ex vivo phenotypic screen (severity score); format: cell-based, Schistosoma mansoni; conditions: for severity score, adult S. mansoni: maximum of 4; for S. mansoni, adult worm: least concentration at which a severity score of 4 was recorded: after 24 h, tested at 10, 5, 2.5 and 1.25 µM, EC50
Description: The Naval Medical Research Institute (NMRI) isolate of S. mansoni was used. The parasite was cycled between Biomphalaria glabrata snails and male Golden Syrian hamsters (infected at 4–6 weeks of age) as intermediate and definitive hosts, respectively. Hamsters were infected and maintained in accordance with protocols approved by the Institutional Animal Care and Use Committee (IACUC) at the University of California San Diego. The acquisition, preparation and in vitro maintenance of S. mansoni have been described. Briefly, adult worms were harvested from hamsters 42 days post-infection in RPMI or DMEM, and washed five times prior to maintenance overnight at 37 °C and 5% CO2 in Basch medium containing 4% heat-inactivated FBS, 100 µg/mL streptomycin and 100 U/mL penicillin.
Ex vivo screens with adults employed 24-well flat-bottomed plates and approximately 5 males and 2–3 females/well. The complex and often dynamic phenotypic responses that the schistosome parasite is capable of were observed using a Zeiss Axiovert A1 inverted microscope at 24 h. Observations were classified using a constrained nomenclature that involves simple “descriptors” to convey changes in shape, motility and appearance, and the inability of the male worm to adhere to the bottom of the well, compared to DMSO controls. Each descriptor was given a value of 1 and these were added up to yield a “severity score” with a maximum of 4. Evidence of degeneracy or death was awarded a value of 4 as was damage to the tegument (parasite’s surface) on the understanding this would compromise survival in vivo. […] Data were averaged across two experiments for each compound concentration tested.

HEK-293T cells = assay: HEK293 cytotoxicity assay (resazurin); format: cell-based; conditions: human embryonic kidney cells, 48 h, max 4 µM; read-out: CC50 HEK923
Experimental: HEK-293T cells were cultured in DMEM (Gibco) supplemented with 10% heat inactivated FBS (Corning) and 1% penicillin-streptomycin (Gibco). Cells were maintained in vented T75 cell culture flasks (Thermo Scientific, Cat. 12-565-349) at 37 °C and 5% CO2, and were passaged every 72 h. […] Compounds were diluted with fresh DMEM (49 µL/well). HEK-293 cells were suspended at 4 × 10^5 cells/mL in DMEM and added to each well (50 µL/well) to give 2 × 10^4 cells/well. Assay plates were incubated at 37 °C and 5% CO2 for 48 h, followed by addition of 20 µL of 0.5 mM resazurin (Alfa Aesar, Cat. B21187) in PBS to each well. […] In each assay plate, cell viability was normalized relative to positive and negative controls. Assays were performed in biological and technical duplicates, and dose–response and CC50 data were generated with GraphPad Prism 5 using a sigmoidal four parameter logistic curve.

B10R cells = assay: Cytotoxicity to B10R host cells (nuclei count in the amastigote assay); format: cell-based; conditions: mouse monocyte host cells, 72 h
Experimental: For the intracellular amastigote stage assay, L. donovani was incubated at a density of 1 × 10^6 parasites/mL for six days at 29 °C before infection to enrich the proportion of metacyclic promastigotes. B10R monocyte cell lines were cultured in RPMI supplemented with 10% FBS and 1%penicillin/streptomycin at 37 °C in 5% CO2. After 72 h, cells were counted with a hemocytometer and mixed with the six-day-old parasites. […] Plates were incubated at 37 °C and 5% CO2 for 72 h. Cultures were then fixed with 4% formaldehyde solution for 30 min and stained with 0.5 µg/mL DAPI (diamidino-2-phenylindole). Plates were then imaged using an ImageXpress Micro XLS automated high content imager (Molecular Devices, San Jose, CA, USA) using a 10× air objective. A custom image analysis module generated in ImageXpress was used to count the nuclei of host and parasite cells. EC50 values were obtained using the GraphPad Prism 9 Software with biological triplicates.

[3] = at all concentrations (10, 5, 2.5 and 1.25 µM), 24 h

Row | EC50 ([1]; Giardia duodenalis) | EC50 ([2]; Trypanosoma cruzi, C2C12, 72 h) | SMILES | severity score, adult S. mansoni (S. mansoni, adult worm; 10 µM, 24 h) | S. mansoni, adult worm: least concentration at which a severity score of 4 was recorded (S. mansoni, adult worm) | CC50 (HEK-293T cells) | EC50 [1] | CC50 (B10R cells) | EC50 [2] | severity score, adult S. mansoni (S. mansoni, adult worm; [3]) | T. cruzi intracellular parasites eliminated ([2]; 5 µM) | response of adult S. mansoni (S. mansoni, adult worm; 5 µM, 24 h)
1 | > 10000 nM | 3210 nM | COc1ccc(NC(=O)CCC(=O)O)cc1 [MS26, 4-(4-methoxyphenylamino)-4 oxobutanoic acid] | zero | >10.0 µM | – | – | – | – | – | – | –
2 | – | – | CCC[CH2][Sn]([CH2]CCC)([O]C(=O)CCC(=O)Nc1ccc(OC)cc1)[O]C(=O)CCC(=O)Nc1ccc(OC)cc1 [MS26Bu2] | – | 1.25 µM | 370 nM | > 10000 nM | 1060 nM | 530 nM | 4 | – | –
3 | – | – | CCC[CH2][Sn]([CH2]CCC)([CH2]CCC)[O]C(=O)CCC(=O)Nc1ccc(OC)cc1 [MS26Bu3] | – | 1.25 µM | 140 nM | 1030 nM | 170 nM | 110 nM | 4 | – | –
4 | – | – | CCC[CH2][Sn]([Cl])([Cl])[O]C(=O)CCC(=O)Nc1ccc(OC)cc1 [MS26BuSnCl2] | zero | >10.0 µM | > 4000 nM | > 10000 nM | 620 nM | > 20000 nM | – | – | –
5 | – | – | COc1ccc(NC(=O)CCC(=O)[O][Sn]([CH]2CCCCC2)([CH]2CCCCC2)[CH]2CCCCC2)cc1 [MS26Cy3] | – | 1.25 µM | 110 nM | > 10000 nM | 110 nM | 300 nM | 4 | – | –
6 | – | – | C[CH2][Sn]([CH2]C)([CH2]C)[O]C(=O)CCC(=O)Nc1ccc(OC)cc1 [MS26Et3] | – | – | – | 8000 nM | – | 240 nM | 4 | > 95% | –
7 | – | – | COc1ccc(NC(=O)CCC(=O)[O][Sn]([CH3])([CH3])[CH3])cc1 [MS26Me3] | lethal | 10 µM | 1240 nM | > 10000 nM | 4870 nM | > 20000 nM | – | – | the same response as MS26Oct2 at 10 µM
8 | – | – | COc1ccc(NC(=O)CCC(=O)[O-])cc1.[Na+] [MS26Na, sodium 4-(4-methoxyphenylamino)-4 oxobutanoate] | zero | >10.0 µM | > 4000 nM | > 10000 nM | 4550 nM | 4270 nM | – | – | –
9 | – | – | COc1ccc(NC(=O)CCC(=O)[O][Sn]([c]2ccccc2)([c]2ccccc2)[c]2ccccc2)cc1 [MS26Ph3] | – | 1.25 µM | 360 nM | 5300 nM | 290 nM | > 20000 nM | 4 | – | –
10 | – | – | C=[CH][Sn]([CH]=C)([O]C(=O)CCC(=O)Nc1ccc(OC)cc1)[O]C(=O)CCC(=O)Nc1ccc(OC)cc1 [MS26vin2] | zero | >10.0 µM | > 4000 nM | > 10000 nM | > 20000 nM | > 20000 nM | – | – | –
